# Literature values as cited in patent EP2566463B1, “EXTENDED RELEASE THIOCO[…]” (Ali Raif Ilac Sanayi Ve Ticaret A.S., priority 2010, dated 2011).
# How the values were obtained:
# [1] = conventional, immediate release forms of thiocolchicoside
# [2] = conventional, immediate release forms
Molecule,Elimination half life in plasma [1] [h],muscle relaxing effect starts [2] [h]
"N-[3-(β-D-glucopyranosyloxy)-1,2-dimethoxy-10-(methylthio)-9-oxo-5,6,7,9-tetrahydrobenzo[a]heptalen-7-yl]acetamide [thiocolchicoside]",4 to 5,1 to 2
COc1c(O)cc2c(c1OC)-c1ccc(SC)c(=O)cc1C(NC(C)=O)CC2 (stereo not drawn) [3-Desmethylthiocolchicine],4 to 5,
